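96-well plates; 48 h exposure; 5 concentrations. Endpoints by linear interpolation between flanking doses. Not reached: highest tested concentration assigned. GI50 is the concentration that inhibits growth by half.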 Calls of active or inactive are those of the source. No stated cut-off is given here; in the data, active = GI50 up to about 1.1 µM and inactive = higher.
Key:
Assay in all cases: DTP human tumour cell line panel, 48 h
MDA-MB-231 = system: MDA-MB-231
KM12 = system: KM12
SK-MEL-5 = system: SK-MEL-5
HCT-116 = system: HCT-116
HCC 2998 = system: HCC 2998
HCT-15 = system: HCT-15
NCI-H23 = system: NCI-H23
MCF7 = system: MCF7
A549 = system: A549
UACC-62 = system: UACC-62
PC-3 = system: PC-3
CCRF-CEM = system: CCRF-CEM
K562 = system: K562
LOX IMVI = system: LOX IMVI
NCI-H226 = system: NCI-H226
SNB-19 = system: SNB-19
MOLT-4 = system: MOLT-4
CAKI-1 = system: CAKI-1
M14 = system: M14
OVCAR-5 = system: OVCAR-5

SMILES | GI50 (MDA-MB-231) | GI50 (KM12) | GI50 (SK-MEL-5) | GI50 (HCT-116) | GI50 (HCC 2998) | GI50 (HCT-15) | GI50 (NCI-H23) | GI50 (MCF7) | GI50 (A549) | GI50 (UACC-62) | GI50 (PC-3) | GI50 (CCRF-CEM) | GI50 (K562) | GI50 (LOX IMVI) | GI50 (NCI-H226) | GI50 (SNB-19) | GI50 (MOLT-4) | GI50 (CAKI-1) | GI50 (M14) | GI50 (OVCAR-5)
O=C1NC(=S)NC(=O)C1=Cc1cccc2cc3ccccc3cc12 | 2.01 µM (inactive) | 1.98 µM (inactive) | 2.07 µM (inactive) | 1.95 µM (inactive) | 2.04 µM (inactive) | 1.68 µM | 1.87 µM (inactive) | 1.8 µM (inactive) | 3.08 µM (inactive) | 1.87 µM (inactive) | 1.74 µM (inactive) | 0.378 µM (active) | 2.07 µM (inactive) | 1.67 µM (inactive) | 2.03 µM (inactive) | 2.28 µM (inactive) | 2.12 µM (inactive) | 2.03 µM (inactive) | 2.24 µM (inactive) | 2.3 µM (inactive)
CC12C=CC(=O)C=C1CCC1C3CCC(O)(C(=O)CO)C3(C)CC(O)C12F (stereo not given) | > 100 µM (inactive) | > 100 µM (inactive) | > 100 µM (inactive) | > 100 µM (inactive) | > 100 µM (inactive) | > 100 µM | > 100 µM (inactive) | > 100 µM (inactive) | > 100 µM (inactive) | > 100 µM (inactive) | > 100 µM (inactive) | 0.536 µM (active) | > 100 µM (inactive) | > 100 µM (inactive) | > 100 µM (inactive) | > 100 µM (inactive) | > 100 µM (inactive) | > 100 µM (inactive) | > 100 µM (inactive) | > 76.4 µM (inactive)
CCN(CC)c1ccc(C2NC(=O)c3ccccc3N2)cc1 (stereo not given) | 1.88 µM (inactive) | 2.15 µM (inactive) | 1.15 µM (inactive) | 1.48 µM (inactive) | 2.19 µM (inactive) | 1.13 µM | 2.77 µM (inactive) | 3.73 µM (inactive) | 3.27 µM (inactive) | 3.1 µM (inactive) | 3.32 µM (inactive) | 0.641 µM (active) | 1.27 µM (inactive) | 2.95 µM (inactive) | 2.98 µM (inactive) | 17.1 µM (inactive) | 3.55 µM (inactive) | 2.82 µM (inactive) | 2.93 µM (inactive) | > 22 µM (inactive)
COc1cccc(OC)c1NC(=O)C(=O)Nn1c(NNC(=O)c2ccncc2)nc2ccccc2c1=O | > 100 µM (inactive) | > 100 µM (inactive) | > 100 µM (inactive) | > 100 µM (inactive) | > 100 µM (inactive) | > 100 µM | > 100 µM (inactive) | > 100 µM (inactive) | > 100 µM (inactive) | > 100 µM (inactive) | > 100 µM (inactive) | > 100 µM (inactive) | > 100 µM (inactive) | > 100 µM (inactive) | > 100 µM (inactive) | > 100 µM (inactive) | > 100 µM (inactive) | > 100 µM (inactive) | > 100 µM (inactive) | > 100 µM (inactive)
CCN(CC)C(=O)Cn1c(C)cc2ccccc21 | > 100 µM (inactive) | > 100 µM (inactive) | > 100 µM (inactive) | > 100 µM (inactive) | > 100 µM (inactive) | > 100 µM | > 100 µM (inactive) | > 100 µM (inactive) | > 100 µM (inactive) | > 100 µM (inactive) | > 100 µM (inactive) | > 100 µM (inactive) | > 100 µM (inactive) | > 100 µM (inactive) | > 100 µM (inactive) | > 100 µM (inactive) | > 100 µM (inactive) | > 100 µM (inactive) | > 100 µM (inactive) | > 100 µM (inactive)
CSc1c(CC(=O)Nc2ccc(Cl)cc2)n(Cc2ccccc2)c2ccccc12 | 14.8 µM (inactive) | > 100 µM (inactive) | 29.9 µM (inactive) | 23.9 µM (inactive) | 19.5 µM (inactive) | 30.5 µM | 29.1 µM (inactive) | 18.6 µM (inactive) | 43.5 µM (inactive) | 18.1 µM (inactive) | 11 µM (inactive) | 40.3 µM (inactive) | 28 µM (inactive) | 38 µM (inactive) | 20.8 µM (inactive) | 46.9 µM (inactive) | 43.1 µM (inactive) | 22.8 µM (inactive) | 58.2 µM (inactive) | 29.6 µM (inactive)
CC(=O)NCCC1CN(C(=O)/C=C/I)c2ccccc21 (stereo not given) | 2.91 µM (inactive) | 1.24 µM (inactive) | 7.57 µM (inactive) | 4.01 µM (inactive) | 15.9 µM (inactive) | 4.93 µM | 11.9 µM (inactive) | 0.308 µM (active) | 17.2 µM (inactive) | 5.07 µM (inactive) | 8.81 µM (inactive) | 2.95 µM (inactive) | 3.73 µM (inactive) | 1.56 µM (inactive) | 14.5 µM (inactive) | 14.8 µM (inactive) | 3.79 µM (inactive) | 4.75 µM (inactive) | 3.37 µM (inactive) | 15.8 µM (inactive)
CC1=Nc2ccccc2/C1=C\c1c(C)[nH]c2ccccc12 | 13.4 µM (inactive) | 13.2 µM (inactive) | 14.1 µM (inactive) | 11.4 µM (inactive) | 15.5 µM (inactive) | 12.9 µM | 13 µM (inactive) | 4.49 µM (inactive) | 23.1 µM (inactive) | 5.26 µM (inactive) | 13.6 µM (inactive) | 5.04 µM (inactive) | 7.21 µM (inactive) | 13.1 µM (inactive) | 15.2 µM (inactive) | 16.6 µM (inactive) | 3.4 µM (inactive) | 13.8 µM (inactive) | 23.2 µM (inactive) | 23.4 µM (inactive)
COc1ccc(Cl)cc1NC(=O)O/N=C(\Cl)C(C)C | 6.22 µM (inactive) | 16.8 µM (inactive) | 5.22 µM (inactive) | 7.19 µM (inactive) | 16.4 µM (inactive) | 2.64 µM | 17.6 µM (inactive) | 6.71 µM (inactive) | 18.8 µM (inactive) | 12.9 µM (inactive) | 17.4 µM (inactive) | 1.04 µM (active) | 1.98 µM (inactive) | 2.08 µM (inactive) | 12.7 µM (inactive) | 29.5 µM (inactive) | 2.03 µM (inactive) | 1.82 µM (inactive) | 3.28 µM (inactive) | 18.4 µM (inactive)
O/N=C(/CC(O)(C(F)(F)F)C(F)(F)F)c1ccccc1 | > 10 µM (inactive) | > 10 µM (inactive) | 2.1 µM (inactive) | > 10 µM (inactive) | > 10 µM (inactive) | > 10 µM | > 10 µM (inactive) | > 10 µM (inactive) | > 10 µM (inactive) | > 10 µM (inactive) | > 10 µM (inactive) | > 10 µM (inactive) | > 10 µM (inactive) | > 10 µM (inactive) | > 10 µM (inactive) | > 10 µM (inactive) | > 10 µM (inactive) | > 10 µM (inactive) | > 10 µM (inactive) | > 10 µM (inactive)
COc1ccc2nc3c([N+](=O)[O-])ccc4c3c(c2c1)N=CN4CCN(C)C | 1.84 µM (inactive) | 3.86 µM (inactive) | 2.53 µM (inactive) | 2.44 µM (inactive) | 3.83 µM (inactive) | 2.57 µM | 7.55 µM (inactive) | 3.3 µM (inactive) | 3.44 µM (inactive) | 8.71 µM (inactive) | 4.65 µM (inactive) | 0.764 µM (active) | 0.726 µM (active) | 3.38 µM (inactive) | 4.34 µM (inactive) | 6.85 µM (inactive) | 2.04 µM (inactive) | 1.36 µM (inactive) | 4.8 µM (inactive) | 6.7 µM (inactive)
CC1=C(CO)C(=O)O[C@@H]([C@@H](C)[C@H]2CC[C@H]3[C@@H]4C[C@@H](O)[C@@]5(O)CC=CC(=O)[C@]5(C)[C@H]4CC[C@]23C)C1 [JABOROSALACTONE D] | 31.3 µM (inactive) | 19.8 µM (inactive) | 32.6 µM (inactive) | 20.5 µM (inactive) | 30.3 µM (inactive) | 16.4 µM | 21.2 µM (inactive) | 39.7 µM (inactive) | 38 µM (inactive) | 29.6 µM (inactive) | 47 µM (inactive) | 33.2 µM (inactive) | 26.8 µM (inactive) | 23.5 µM (inactive) | 35.8 µM (inactive) | 46.5 µM (inactive) | 26.6 µM (inactive) | > 100 µM (inactive) | 49.2 µM (inactive) | > 100 µM (inactive)
